Assay results as given in ChEMBL document CHEMBL5352426, “Synthesis and anti-tumor activity of nitrogen-containing derivatives of the natural product diphyllin” (Eur J Med Chem, 2022).
Values after ≈ are worked out from the molar mass of the structure shown. Active and inactive are the calls of the source. No cut-off for these calls is given here.

Tests used:
CFPAC-1 [1] = assay: Induction of apoptosis in human CFPAC-1 cells assessed as viable cells at 10 uM incubated for 24 hrs by annexin V-FITC/PI staining based flow cytometry (reference value: 93.5 %); format: functional; settings: read-out: Activity
[2] = Metabolic stability in human liver microsome assessed as half life; format: ADME; settings: liver microsomes
[3] = Aqueous solubility of the compound at 1 to 2 mg measured after 24 hrs by HPLC-MS analysis; format: physicochemical; settings: aqueous (not further specified), dose 1-2 mg
Panc02 [4] = assay: Antitumor activity against […] Panc02 cells xenografted in C57BL/6 mouse assessed as tumor growth inhibition at 10 mg/kg, ip administered every two days for 20 days by electronic caliper method relative to control; format: functional; settings: Panc02, 480 h, time 20 day, read-out: TGI
CFPAC-1 [5] = assay: Induction of cell cycle arrest in human CFPAC-1 cells assessed as accumulation at S phase at 100 nM incubated for 24 hrs by flow cytometry (reference value: 24.5 %); format: functional
[6] = Metabolic stability in mouse liver microsome assessed as intrinsic clearance; format: ADME; settings: liver microsomes, read-out: CLH
CFPAC-1 [7] = assay: Induction of apoptosis in human CFPAC-1 cells assessed as viable cells at 1 uM incubated for 24 hrs by annexin V-FITC/PI staining based flow cytometry (reference value: 93.5 %); format: functional; settings: read-out: Activity
Panc02 [8] = assay: Antiproliferative activity against mouse Panc02 cells assessed as inhibition of cell proliferation at 1 uM incubated for 72 hrs by SRB assay relative to control; format: functional
Panc02 [9] = assay: Antiproliferative activity against mouse Panc02 cells assessed as inhibition of cell proliferation incubated for 72 hrs by SRB assay; format: functional, cell-based; settings: Panc02, 72 h
CFPAC-1 [10] = assay: Induction of cell cycle arrest in human CFPAC-1 cells assessed as accumulation at G1 phase at 100 nM incubated for 24 hrs by flow cytometry (reference value: 58.6 %); format: functional
[11] = Metabolic stability in human liver microsome assessed as hepatic clearance; format: ADME; settings: microsomes
CFPAC-1 [12] = assay: Antiproliferative activity against human CFPAC-1 cells assessed as inhibition of cell proliferation incubated for 72 hrs by SRB assay; format: functional, cell-based; settings: CFPAC-1, 72 h
CFPAC-1 [13] = assay: Induction of apoptosis in human CFPAC-1 cells assessed as early apoptotic cells at 10 uM incubated for 24 hrs by annexin V-FITC/PI staining based flow cytometry (reference value: 3.04 %); format: functional
[14] = Toxicity in C57BL/6 mouse xenografted with […] cells assessed as drug tolerance at 10 mg/kg, ip administered every two days for 20 days; format: organism-based; settings: in vivo, 480 h, time 20 day
[15] = Metabolic stability in human liver microsome assessed as intrinsic clearance; format: ADME; settings: liver microsomes, read-out: CLH
CFPAC-1 [16] = assay: Induction of apoptosis in human CFPAC-1 cells assessed as late apoptotic cells at 10 uM incubated for 24 hrs by annexin V-FITC/PI staining based flow cytometry (reference value: 3.14 %); format: functional
[17] = Antiproliferative activity against human L02 cells assessed as inhibition of cell proliferation at 1 uM incubated for 72 hrs by SRB assay relative to control; format: toxicity, cell-based
MIA PaCa-2 [18] = assay: Antiproliferative activity against human MIA PaCa-2 cells assessed as inhibition of cell proliferation at 1 uM incubated for 72 hrs by SRB assay relative to control; format: functional
CFPAC-1 [19] = assay: Induction of cell cycle arrest in human CFPAC-1 cells assessed as accumulation at G2 phase at 1000 nM incubated for 24 hrs by flow cytometry (reference value: 14.5 %); format: functional
CFPAC-1 [20] = assay: Antiproliferative activity against human CFPAC-1 cells assessed as inhibition of cell proliferation at 1 uM incubated for 72 hrs by SRB assay relative to control; format: functional
CFPAC-1 [21] = assay: Induction of apoptosis in human CFPAC-1 cells assessed as necrotic cells at 10 uM incubated for 24 hrs by annexin V-FITC/PI staining based flow cytometry (reference value: 0.37 %); format: functional
CFPAC-1 [22] = assay: Effect on beclin-1 level in human CFPAC-1 cells at 10 to 1000 nM incubated for 24 hrs by Western blot analysis; format: functional, cell-based; settings: dose 10-1000 nM
[23] = Antiproliferative activity against human L02 cells assessed as inhibition of cell proliferation incubated for 72 hrs by SRB assay; format: toxicity, cell-based
MIA PaCa-2 [24] = assay: Antiproliferative activity against human MIA PaCa-2 cells assessed as inhibition of cell proliferation incubated for 72 hrs by SRB assay; format: functional, cell-based; settings: MIA PaCa-2, 72 h
CFPAC-1 [25] = assay: Inhibition of autophagy at later stage in human CFPAC-1 cells assessed as increase in LC3-II/LC3-I ratio at 1 uM incubated for 24 hrs in presence of chloroquine by Western blot analysis; format: functional, cell-based
CFPAC-1 [26] = assay: Induction of cell cycle arrest in human CFPAC-1 cells assessed as accumulation at S phase at 1000 nM incubated for 24 hrs by flow cytometry (reference value: 24.5 %); format: functional
CFPAC-1 [27] = assay: Induction of cell cycle arrest in human CFPAC-1 cells assessed as accumulation at G1 phase at 1000 nM incubated for 24 hrs by flow cytometry (reference value: 58.6 %); format: functional
[28] = Toxicity in C57BL/6 mouse xenografted with […] cells assessed as body weight loss at 10 mg/kg, ip administered every two days for 20 days; format: organism-based; settings: in vivo, 480 h, time 20 day
CFPAC-1 [29] = assay: Induction of cell cycle arrest in human CFPAC-1 cells assessed as accumulation at G2 phase at 100 nM incubated for 24 hrs by flow cytometry (reference value: 14.5 %); format: functional
CFPAC-1 [30] = assay: Induction of apoptosis in human CFPAC-1 cells assessed as late apoptotic cells at 1 uM incubated for 24 hrs by annexin V-FITC/PI staining based flow cytometry (reference value: 3.14 %); format: functional
CFPAC-1 [31] = assay: Induction of apoptosis in human CFPAC-1 cells assessed as early apoptotic cells at 1 uM incubated for 24 hrs by annexin V-FITC/PI staining based flow cytometry (reference value: 3.04 %); format: functional
PaTu 8988t [32] = assay: Antiproliferative activity against human PaTu 8988t cells assessed as inhibition of cell proliferation at 1 uM incubated for 72 hrs by SRB assay relative to control; format: functional
[33] = Metabolic stability in mouse liver microsome assessed as hepatic clearance; format: ADME; settings: microsomes
CFPAC-1 [34] = assay: Induction of cell cycle arrest in human CFPAC-1 cells assessed as accumulation at G1 phase at 10 nM incubated for 24 hrs by flow cytometry (reference value: 58.6 %); format: functional
CFPAC-1 [35] = assay: Induction of cell cycle arrest in human CFPAC-1 cells assessed as accumulation at S phase at 10 nM incubated for 24 hrs by flow cytometry (reference value: 24.5 %); format: functional
PaTu 8988t [36] = assay: Antiproliferative activity against human PaTu 8988t cells assessed as inhibition of cell proliferation incubated for 72 hrs by SRB assay; format: functional, cell-based
[37] = Metabolic stability in mouse liver microsome assessed as half life; format: ADME; settings: liver microsomes
CFPAC-1 [38] = assay: Induction of apoptosis in human CFPAC-1 cells assessed as necrotic cells at 1 uM incubated for 24 hrs by annexin V-FITC/PI staining based flow cytometry (reference value: 0.37 %); format: functional
CFPAC-1 [39] = assay: Induction of cell cycle arrest in human CFPAC-1 cells assessed as accumulation at G2 phase at 10 nM incubated for 24 hrs by flow cytometry (reference value: 14.5 %); format: functional

- half-life [2]: 43.8 min
- solubility at 24 h [3]: 0.021 µg/mL (≈ 0.0552 µM)
- microsomal CLint [6]: > 277 µL/min/mg
- IC50 (Panc02 [9]): 61 nM
- CLH [11]: 13.2 mL/min/kg
- microsomal CLint [15]: 31.6 µL/min/mg
- IC50 (MIA PaCa-2 [24]): 271 nM
- CLH [33]: > 83.2 mL/min/kg
- half-life [37]: < 5 min
Compound: COc1cc2c(O)c3c(c(-c4ccc5c(c4)OCO5)c2cc1OC)C(=O)OC3 [DIPHYLLIN]
- viability at 10 µM (CFPAC-1 [1]): 87.8%
- inhibition in vivo at 10 mg/kg (Panc02 [4]): 22.6%
- Activity (CFPAC-1 [5]): 20.4%
- viability at 1 µM (CFPAC-1 [7]): 89.9%
- inhibition at 1 µM (Panc02 [8]): 83.3%
- Activity (CFPAC-1 [10]): 66.7%
- IC50 (CFPAC-1 [12]): 208 nM
- Activity (CFPAC-1 [13]): 2.1%
- Activity [14]: Non-Toxic
- Activity (CFPAC-1 [16]): 9.53%
- inhibition at 72 h, 1 µM [17]: 17.7%
- inhibition at 1 µM (MIA PaCa-2 [18]): 70.1%
- Activity (CFPAC-1 [19]): 7.81%
- inhibition at 1 µM (CFPAC-1 [20]): 75.4%
- Activity (CFPAC-1 [21]): 0.58%
- Activity (CFPAC-1 [22]): inactive
- IC50 at 72 h [23]: 3320 nM
- inhibition (CFPAC-1 [25]): Active
- Activity (CFPAC-1 [26]): 8.14%
- Activity (CFPAC-1 [27]): 81.9%
- Activity [28]: Non-Toxic
- Activity (CFPAC-1 [29]): 10.6%
- Activity (CFPAC-1 [30]): 7.23%
- Activity (CFPAC-1 [31]): 1.99%
- inhibition at 1 µM (PaTu 8988t [32]): 77.5%
- Activity (CFPAC-1 [34]): 58.9%
- Activity (CFPAC-1 [35]): 28.7%
- IC50 (PaTu 8988t [36]): 102 nM
- Activity (CFPAC-1 [38]): 0.86%
- Activity (CFPAC-1 [39]): 10.1%
